From US8309602B2, “Multi-substituted diarylanilines as non-nucleoside HIV reverse transcriptase inhibitors, and preparation and use thereof” (Institute of Pharmacology and Toxicology, priority 2007, dated 2012) come the findings set out here.

Values after ≈ are worked out from the molar mass of the structure shown. Where two headings read alike, the source gives them in different places.

Common to all, as to assay type: cell-based
The subject of data set [1] is HIV-1IIIB virus strains. Description: Assay of anti-HIV activity (MT-2 cell model), p24 antigen ELISA. The settings on record: for EC50: MT-2 cell line infected with HIV-1IIIB, 50% virus inhibition; for SI (CC50/EC50): MT-2 cell line, ratio of cytotoxicity CC50 to activity EC50. The method, then: Reference documents (Jiang, S., et al. Antimicrob. Agents Chemother. 2004, 48, 4349-4359). In 96 wells culture plate, 50 μl of different concentrations of compound solutions were mixed with HIV-1IIIB virus strains (100 TCID50) in the same volume, incubated at 37° C. for 30 minutes, added with 100 μl TM-2 cell (1×10^5/mL, RPIM 1640 culture medium containing 10% serum), mixed uniformly, and incubated at 37° C. overnight. In the second day, 150 μl supernatant was sucked off and supplemented with fresh culture medium in the same volume, the compound solutions were incubated continuously at 37° C. for 3 days, and the cell pathology effect (CPE) was recorded in the fourth day. Then 100 μl cultured supernatant was sucked up to determine p24 antigen therein with 5% Triton X-100 lytic virus particles by using ELISA method. Briefly, HIVIG (2 μg/ml) was used to encapsulate enzyme standard plate, sealed with 1% fat-free milk, and then added with virus lytic solution, incubated at 37° C. for 60 minutes. After the plate was washed completely, anti-p24 monoclonal antibody-183-12H-5C, goat anti-mouse antibody labeled with biotin and horse radish peroxidase labeled with avidin were added. Then the compounds were developed with TMB, and the light density was tested at 450 nm. The virus inhibition concentration of 50% (EC50) of the compounds was calculated by using CalcuSyn software.

The subject of data set [2] is HIV virus (IIIB). Description: Assay of anti-HIV activity (H9 cell model), P24 antigen ELISA. Conditions: for SI (CC50/EC50): H9 cell line, ratio of cytotoxicity CC50 to activity EC50; for EC50: H9 cell line infected with HIV (IIIB), 50% inhibition of virus replication. The method, then: Reference document (J. Med. Chem. 2004, 47, 756-760). Lymphocyte H9 was cultured at 37° C. in culture medium 1640 and 5% CO2. The tested compound was initially dissolved in DMSO, and then diluted with culture medium to conventional screening concentration: 100, 20, 4, 0.8 μg/mL. The cultured H9 cells were divided into two parts, wherein one of the parts was infected with HIV virus (IIIB) (m.i.o. 0.1-0.01 infectious Units/cell), which was used for assaying activity. The other part of the cells was not added with viruses but only with culture medium, which was used for assaying toxicity. The two parts of the cells were cultured under completely identical conditions (37° C., 5% CO2) for 4 hours, washed with fresh culture medium for three times, and then were added respectively to the prepared tested samples of different concentrations or to culture medium (the latter was positive infection control or negative drug control), and meanwhile AZT was used as positive drug control. All these cells were cultured at 37° C. in 5% CO2 for 4 days. In the fourth day, the cell membranes of the cells infected by viruses were removed, and the cytosol was tested by P24 antigen ELISA method to assay the activity of the sample, expressed using EC50. EC50 was an effective concentration when virus replication was inhibited by 50%. The part of the cells without viruses added were tested by the method of counting cells to assay the toxicity of the sample, expressed using CC50. CC50 was a concentration when growth cells were killed by 50%.

Data set [3] is described as follows: Cytotoxicity test of compound in MT-2 cells (XTT). Conditions: human, MT-2 cell line, uninfected cells. The protocol:
(§1) Reference documents (Jiang, S., et al. Antimicrob. Agents Chemother. 2004, 48, 4349-4359). In 96 wells culture plate, 50 μl of different concentrations of compound solutions were mixed with PBS in the same volume, incubated at 37° C. for 30 minutes, added with 100 μL TM-2 (or H9) cell (1×10^5/mL, RPIM 1640 culture medium containing 10% serum), mixed uniformly, and incubated at 37° C. overnight.

Data set [4] in a line: Cytotoxicity test of compound in H9 cells. The settings on record: human, H9 cell line, uninfected cells. The protocol:
(§2) Reference document (J. Med. Chem. 2004, 47, 756-760). Lymphocyte H9 was cultured at 37° C. in culture medium 1640 and 5% CO2. […] The cultured H9 cells were divided into two parts, wherein one of the parts was infected with HIV virus (IIIB) (m.i.o. 0.1-0.01 infectious Units/cell), which was used for assaying activity. The other part of the cells was not added with viruses but only with culture medium, which was used for assaying toxicity. The two parts of the cells were cultured under completely identical conditions (37° C., 5% CO2) for 4 hours, washed with fresh culture medium for three times, and then were added respectively to the prepared tested samples of different concentrations or to culture medium (the latter was positive infection control or negative drug control), and meanwhile AZT was used as positive drug control. All these cells were cultured at 37° C. in 5% CO2 for 4 days. […] The part of the cells without viruses added were tested by the method of counting cells to assay the toxicity of the sample, expressed using CC50. […] Reference documents (Jiang, S., et al. Antimicrob. Agents Chemother. 2004, 48, 4349-4359). In 96 wells culture plate, 50 μl of different concentrations of compound solutions were mixed with PBS in the same volume, incubated at 37° C. for 30 minutes, added with 100 μL TM-2 (or H9) cell (1×10^5/mL, RPIM 1640 culture medium containing 10% serum), mixed uniformly, and incubated at 37° C. overnight.

Data set [5] deals with MT-2 cells. Description: Cytotoxicity test of compound in MT-2 cells (XTT). The settings on record: MT-2 cell line, uninfected cells. The method, then: as §1
For data set [6], the system named is H9 cells. Kind of data set: Cytotoxicity test of compound in H9 cells. Conditions: H9 cell line, uninfected cells. The method, then:
as §2

The mark [7] stands for this setting: Human immunodeficiency virus 1, MT2, read-out: EC50.
Setting [8] is: Human immunodeficiency virus 1, read-out: EC50.

As to `Cc1cccc(C)c1Oc1ccc([N+](=O)[O-])c(Nc2ccc(C#N)cc2)c1` [Compound I-7, N^1-(4′-cyanophenyl)-5-(2′,6′-dimethylphenoxy)-2-nitroaniline], the results for the EC50 in data set [1] (setting [7]) and in data set [2] (setting [8]) were 1.18 µg/mL (≈ 3.28 µM) and 0.76 µg/mL (≈ 2.11 µM), respectively. The “SI (CC50/EC50)” value in data set [1] is reported as >85; in data set [2], >33. Further, the results for the CC50 at 4 days in data set [3] (MT-2 cells) and in data set [4] (H9 lymphocyte cells) were > 100 µg/mL and > 25 µg/mL, respectively.

Take `Cc1cc(C)c(Oc2cc(Nc3ccc(C#N)cc3)c([N+](=O)[O-])cc2[N+](=O)[O-])c(C)c1` [Compound I-14, N^1-(4′-cyanophenyl)-5-(2′,4′,6′-trimethylphenoxy)-2,4-dinitroaniline]: the EC50 in data set [1] (setting [7]) was 0.7 µg/mL (≈ 1.67 µM); in data set [2] (setting [8]), 0.144 µg/mL (≈ 0.344 µM). The “SI (CC50/EC50)” value in data set [1] is listed as 41.09; in data set [2] it was >174. Moreover, the CC50 at 4 days in data set [3] was 28.8 µg/mL (≈ 68.7 µM); in data set [4] it was > 25 µg/mL.

Consider `Cc1cc(C#N)cc(C)c1Oc1cc(Nc2ccc(C#N)cc2)c(N)cc1N` [Compound I-10, N^1-(4′-cyanophenyl)-5-(4′-Cyano-2′,6′-dimethylphenoxy)benzene-1,2,4-triamine], for which the EC50 in data set [1] (setting [7]) was 0.008 µg/mL (≈ 0.0217 µM); in data set [2] (setting [8]), < 0.025 µg/mL. Also, the “SI (CC50/EC50)” value was 2425 in data set [1] and >820 in data set [2]. In addition, the CC50 at 4 days in data set [3] (MT-2 cells) was 19.4 µg/mL (≈ 52.5 µM); in data set [4] (H9 lymphocyte cells) it was 20.5 µg/mL (≈ 55.5 µM).

For `Cc1cc(Br)cc(C)c1Oc1ccc(N)c(Nc2ccc(C#N)cc2)c1` [Compound I-13, 4-(4′-Bromo-2′,6′-dimethylphenoxy)-N^2-(4′-cyanophenyl)benzene-1,2-diamine], the figures for the EC50 in data set [1] (setting [7]) and in data set [2] (setting [8]) were 0.16 µg/mL (≈ 0.392 µM) and 0.134 µg/mL (≈ 0.328 µM), respectively. Also, the “SI (CC50/EC50)” value in data set [1] was found to be 91; in data set [2], 128. For the same compound, the CC50 at 4 days was determined as 14.5 µg/mL (≈ 35.5 µM) in data set [3] (MT-2 cells) and 17.2 µg/mL (≈ 42.1 µM) in data set [4] (H9 lymphocyte cells).

In the case of `Cc1cc(Br)cc(C)c1Oc1cc(Nc2ccc(C#N)cc2)c([N+](=O)[O-])cc1[N+](=O)[O-]` [Compound I-1, N^1-(4′-cyanophenyl)-5-(2′,6′-dimethyl-4′-bromophenoxy)-2,4-dinitroaniline], the results for the EC50 in data set [1] (setting [7]) and in data set [2] (setting [8]) were 0.14 µg/mL (≈ 0.29 µM) and 0.11 µg/mL (≈ 0.228 µM), respectively. Besides, the “SI (CC50/EC50)” value in data set [1] was >714; in data set [2], >234. In addition, the CC50 at 4 days in data set [3] is > 100 µg/mL; in data set [4], > 25 µg/mL.

Take `Cc1cc(Br)cc(C)c1Oc1cc(Nc2ccc(C#N)cc2)c(N)cc1N` [Compound I-8, 5-(4′-Bromo-2′,6′-dimethylphenoxy)-N^1-(4′-cyanophenyl)benzene-1,2,4-triamine]: the results for the EC50 in data set [1] (setting [7]) and in data set [2] (setting [8]) were 0.13 µg/mL (≈ 0.307 µM) and 0.068 µg/mL (≈ 0.161 µM), respectively. The “SI (CC50/EC50)” value in data set [1] is recorded as 132; in data set [2] it was 239. The CC50 at 4 days turned out to be 17.2 µg/mL (≈ 40.6 µM) in data set [3] (MT-2 cells) and 16.2 µg/mL (≈ 38.4 µM) in data set [4] (H9 lymphocyte cells).

For `Cc1cc(C#N)cc(C)c1Oc1cc(Nc2ccc(C#N)cc2)c(N)cc1[N+](=O)[O-]` [Compound I-11, 5-(4′-Cyano-2′,6′-dimethylphenoxy)-N^1-(4′-cyanophenyl)-4-nitrobenzene-1,2-diamine], the EC50 in data set [1] (setting [7]) is 0.013 µg/mL (≈ 0.0325 µM); in data set [2] (setting [8]), < 0.025 µg/mL. The “SI (CC50/EC50)” value in data set [1] was 4715; in data set [2], >1000. In addition, the 50% cytotoxic concentration (CC50) at 4 days in data set [3] (MT-2 cells) is 61.3 µg/mL (≈ 153 µM); in data set [4] (H9 lymphocyte cells), > 25 µg/mL.

For the compound `Cc1cc(Br)cc(C)c1Oc1cc(Nc2ccc(C#N)cc2)c(N)cc1[N+](=O)[O-]` [Compound I-5, 4-(4′-Bromo-2′,6′-dimethylphenoxy)-N^2-(4′-cyanophenyl)-5-nitrobenzene-1,2-diamine], the EC50 in data set [1] (setting [7]) was < 0.02 µg/mL; in data set [2] (setting [8]), < 0.025 µg/mL. Besides, the “SI (CC50/EC50)” value in data set [1] is >3054; in data set [2], >1000. Also, the cytotoxic concentration (CC50) at 4 days in data set [3] (MT-2 cells) is 61.1 µg/mL (≈ 135 µM); in data set [4] (H9 lymphocyte cells) it was > 25 µg/mL.

On to `Cc1cc(C#N)cc(C)c1Oc1ccc([N+](=O)[O-])c(Nc2ccc(C#N)cc2)c1` [Compound I-6, N^1-(4′-cyanophenyl)-5-(4′-cyano-2′,6′-dimethylphenoxy)-2-nitroaniline], for which the values for the EC50 in data set [1] (setting [7]) and in data set [2] (setting [8]) were 6.63 µg/mL (≈ 17.2 µM) and 0.08 µg/mL (≈ 0.208 µM), respectively. The “SI (CC50/EC50)” value was 8.53 in data set [1] and >312 in data set [2]. For the same compound, the results for the CC50 at 4 days in data set [3] (MT-2 cells) and in data set [4] (H9 lymphocyte cells) were 56.5 µg/mL (≈ 147 µM) and > 25 µg/mL, respectively.

For the compound `Cc1cccc(C)c1Oc1cc(Nc2ccc(C#N)cc2)c([N+](=O)[O-])cc1[N+](=O)[O-]` [Compound I-2, N^1-(4′-cyanophenyl)-5-(2′,6′-dimethylphenoxy)-2,4-dinitroaniline], the EC50 in data set [1] (setting [7]) is 3.71 µg/mL (≈ 9.17 µM); in data set [2] (setting [8]) it was 0.22 µg/mL (≈ 0.544 µM). Also, the results for the “SI (CC50/EC50)” value in data set [1] and in data set [2] were >27 and >113, respectively. The figures for the CC50 at 4 days in data set [3] and in data set [4] were > 100 µg/mL and > 25 µg/mL, respectively.

Consider `CC(=O)ON(c1cc(Nc2ccc(C#N)cc2)c([N+](=O)[O-])cc1[N+](=O)[O-])c1c(C)cc(C)cc1C` [Compound I-4, N^1-(4′-cyanophenyl)-2,4-dinitro-[N^5-acetoxy-N^5-(2′,4′,6′-trimethylphenyl)]benzene-1,5-diamine], for which the EC50 in data set [1] was 2.61 µg/mL (≈ 5.49 µM); in data set [2] it was 1.77 µg/mL (≈ 3.72 µM). Moreover, the “SI (CC50/EC50)” value in data set [1] is listed as 23.45; in data set [2], >14.15. For the same compound, the CC50 in data set [5] was 61.21 µg/mL (≈ 129 µM); in data set [6], >25 µg/mL.

On to `Cc1cc(C)c(Nc2cc(Nc3ccc(C#N)cc3)c([N+](=O)[O-])cc2[N+](=O)[O-])c(C)c1` [Compound I-3, N^1-(4′-cyanophenyl)-2,4-dinitro-N^5-(2′,4′,6′-trimethylphenyl)-benzene-1,5-diamine], for which the figures for the EC50 in data set [1] (setting [7]) and in data set [2] (setting [8]) were 0.18 µg/mL (≈ 0.431 µM) and 0.055 µg/mL (≈ 0.132 µM), respectively. In addition, the “SI (CC50/EC50)” value in data set [1] is recorded as >556; in data set [2], >455. In addition, the CC50 at 4 days in data set [3] was > 100 µg/mL; in data set [4], > 25 µg/mL.
